What was measured:
Conditions in all cases: Compound concentration 10 µM
[1] = target: Beta-1 adrenergic receptor (Homo sapiens) (UniProt P08588)
[2] = target: Muscarinic acetylcholine receptor M3 (Homo sapiens) (UniProt P20309)
[3] = target: D(3) dopamine receptor (Homo sapiens) (UniProt P35462)
[4] = target: T1, D(4) dopamine receptor (Homo sapiens) (UniProt P21917)
T1 sequence (whole entry): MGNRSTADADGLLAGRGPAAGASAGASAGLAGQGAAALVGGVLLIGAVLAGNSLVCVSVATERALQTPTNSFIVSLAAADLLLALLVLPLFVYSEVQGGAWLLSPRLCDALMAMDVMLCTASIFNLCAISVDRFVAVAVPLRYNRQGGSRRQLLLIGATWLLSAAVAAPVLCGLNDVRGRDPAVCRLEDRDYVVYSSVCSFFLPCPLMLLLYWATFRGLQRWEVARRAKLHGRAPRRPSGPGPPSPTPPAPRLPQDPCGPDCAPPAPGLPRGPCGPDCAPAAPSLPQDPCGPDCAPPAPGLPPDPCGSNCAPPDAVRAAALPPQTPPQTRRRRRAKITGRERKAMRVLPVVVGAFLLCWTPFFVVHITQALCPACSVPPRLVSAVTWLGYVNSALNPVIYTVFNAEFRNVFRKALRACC

[5] = target: Histamine H3 receptor (Homo sapiens) (UniProt Q9Y5N1)
[6] = target: Histamine H4 receptor (Homo sapiens) (UniProt Q9H3N8)
[7] = target: 5-hydroxytryptamine receptor 2A (Homo sapiens) (UniProt P28223)
[8] = target: 5-hydroxytryptamine receptor 2B (Homo sapiens) (UniProt P41595)
[9] = target: T2, 5-hydroxytryptamine receptor 3A (Homo sapiens) (UniProt P46098)
T2 sequence (whole entry): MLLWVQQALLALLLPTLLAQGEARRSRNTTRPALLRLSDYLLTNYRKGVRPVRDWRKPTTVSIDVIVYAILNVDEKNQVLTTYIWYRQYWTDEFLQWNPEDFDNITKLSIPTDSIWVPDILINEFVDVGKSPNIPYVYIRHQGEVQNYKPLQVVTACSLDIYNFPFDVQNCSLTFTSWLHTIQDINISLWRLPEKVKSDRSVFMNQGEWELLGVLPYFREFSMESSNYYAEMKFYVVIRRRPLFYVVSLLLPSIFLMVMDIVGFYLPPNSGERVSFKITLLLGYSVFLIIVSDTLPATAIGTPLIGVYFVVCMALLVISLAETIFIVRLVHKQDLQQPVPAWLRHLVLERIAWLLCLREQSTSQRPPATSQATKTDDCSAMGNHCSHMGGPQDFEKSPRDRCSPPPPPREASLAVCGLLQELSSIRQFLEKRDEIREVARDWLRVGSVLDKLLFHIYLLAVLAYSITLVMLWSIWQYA

[10] = target: 5-hydroxytryptamine receptor 6 (Homo sapiens) (UniProt P50406)
[11] = target: Delta-type opioid receptor (Homo sapiens) (UniProt P41143)
[12] = target: Kappa-type opioid receptor (Homo sapiens) (UniProt P41145)
[13] = target: Sodium-dependent dopamine transporter (Homo sapiens) (UniProt Q01959)
[14] = target: Sigma intracellular receptor 2 (Homo sapiens) (UniProt Q5BJF2)
[15] = target: Beta-3 adrenergic receptor (Homo sapiens) (UniProt P13945)
[16] = target: Histamine H2 receptor (Homo sapiens) (UniProt P25021)
[17] = target: T3, Muscarinic acetylcholine receptor M2 (Homo sapiens) (UniProt P08172)
T3 sequence (whole entry): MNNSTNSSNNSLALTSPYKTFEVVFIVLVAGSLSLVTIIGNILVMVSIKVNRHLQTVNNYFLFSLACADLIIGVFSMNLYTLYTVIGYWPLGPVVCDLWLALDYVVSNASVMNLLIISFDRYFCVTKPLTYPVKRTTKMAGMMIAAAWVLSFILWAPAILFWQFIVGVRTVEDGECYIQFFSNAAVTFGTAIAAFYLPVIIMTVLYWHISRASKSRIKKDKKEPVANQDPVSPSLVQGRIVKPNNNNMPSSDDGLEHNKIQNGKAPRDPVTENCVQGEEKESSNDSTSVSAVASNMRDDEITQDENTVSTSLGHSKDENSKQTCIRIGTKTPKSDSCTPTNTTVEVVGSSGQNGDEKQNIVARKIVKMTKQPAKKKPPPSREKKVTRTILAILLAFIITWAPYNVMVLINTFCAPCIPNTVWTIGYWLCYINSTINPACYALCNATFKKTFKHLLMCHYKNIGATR

[18] = target: D(1A) dopamine receptor (Homo sapiens) (UniProt P21728)
[19] = target: D(1B) dopamine receptor (Homo sapiens) (UniProt P21918)
[20] = target: 5-hydroxytryptamine receptor 1D (Homo sapiens) (UniProt P28221)
[21] = target: Sodium-dependent serotonin transporter (Homo sapiens) (UniProt P31645)

Chain of 5-hydroxytryptamine receptor 6 (Homo sapiens) (P50406 whole entry): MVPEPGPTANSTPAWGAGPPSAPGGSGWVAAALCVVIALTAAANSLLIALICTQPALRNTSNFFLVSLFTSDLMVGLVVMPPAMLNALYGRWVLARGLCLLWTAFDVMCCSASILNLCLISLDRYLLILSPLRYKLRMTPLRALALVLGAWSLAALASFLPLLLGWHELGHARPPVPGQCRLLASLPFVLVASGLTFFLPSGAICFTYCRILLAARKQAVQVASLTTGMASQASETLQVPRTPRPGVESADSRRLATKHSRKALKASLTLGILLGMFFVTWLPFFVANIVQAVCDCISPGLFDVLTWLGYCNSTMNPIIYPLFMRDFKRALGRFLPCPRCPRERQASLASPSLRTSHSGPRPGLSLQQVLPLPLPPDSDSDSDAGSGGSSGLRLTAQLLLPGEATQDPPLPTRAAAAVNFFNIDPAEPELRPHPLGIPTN
Chain of 5-hydroxytryptamine receptor 2B (Homo sapiens) (P41595 whole entry): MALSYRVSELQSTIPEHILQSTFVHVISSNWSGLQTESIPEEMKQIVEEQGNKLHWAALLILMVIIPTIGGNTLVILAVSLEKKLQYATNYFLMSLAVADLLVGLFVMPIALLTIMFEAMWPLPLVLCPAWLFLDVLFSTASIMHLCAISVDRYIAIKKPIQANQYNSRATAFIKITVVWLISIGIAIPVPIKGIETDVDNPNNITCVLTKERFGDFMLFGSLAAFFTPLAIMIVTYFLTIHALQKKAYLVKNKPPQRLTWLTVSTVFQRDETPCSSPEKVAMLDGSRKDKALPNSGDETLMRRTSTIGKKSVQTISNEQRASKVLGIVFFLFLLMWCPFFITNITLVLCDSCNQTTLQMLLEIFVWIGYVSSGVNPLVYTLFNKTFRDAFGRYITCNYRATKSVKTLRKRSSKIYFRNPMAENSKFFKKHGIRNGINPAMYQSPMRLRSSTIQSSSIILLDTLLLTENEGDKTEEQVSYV
Chain of Histamine H2 receptor (Homo sapiens) (P25021 whole entry): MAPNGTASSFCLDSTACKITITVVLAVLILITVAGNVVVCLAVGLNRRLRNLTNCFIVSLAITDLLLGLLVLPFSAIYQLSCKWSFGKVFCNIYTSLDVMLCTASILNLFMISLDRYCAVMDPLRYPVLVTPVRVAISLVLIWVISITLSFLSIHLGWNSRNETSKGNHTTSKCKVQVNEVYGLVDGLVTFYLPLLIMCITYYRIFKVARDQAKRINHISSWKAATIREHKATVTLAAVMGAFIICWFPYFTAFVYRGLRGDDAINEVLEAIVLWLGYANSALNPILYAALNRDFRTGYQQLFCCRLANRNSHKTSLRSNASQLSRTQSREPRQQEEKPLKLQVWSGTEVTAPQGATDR
Chain of Muscarinic acetylcholine receptor M3 (Homo sapiens) (P20309 whole entry, looked up): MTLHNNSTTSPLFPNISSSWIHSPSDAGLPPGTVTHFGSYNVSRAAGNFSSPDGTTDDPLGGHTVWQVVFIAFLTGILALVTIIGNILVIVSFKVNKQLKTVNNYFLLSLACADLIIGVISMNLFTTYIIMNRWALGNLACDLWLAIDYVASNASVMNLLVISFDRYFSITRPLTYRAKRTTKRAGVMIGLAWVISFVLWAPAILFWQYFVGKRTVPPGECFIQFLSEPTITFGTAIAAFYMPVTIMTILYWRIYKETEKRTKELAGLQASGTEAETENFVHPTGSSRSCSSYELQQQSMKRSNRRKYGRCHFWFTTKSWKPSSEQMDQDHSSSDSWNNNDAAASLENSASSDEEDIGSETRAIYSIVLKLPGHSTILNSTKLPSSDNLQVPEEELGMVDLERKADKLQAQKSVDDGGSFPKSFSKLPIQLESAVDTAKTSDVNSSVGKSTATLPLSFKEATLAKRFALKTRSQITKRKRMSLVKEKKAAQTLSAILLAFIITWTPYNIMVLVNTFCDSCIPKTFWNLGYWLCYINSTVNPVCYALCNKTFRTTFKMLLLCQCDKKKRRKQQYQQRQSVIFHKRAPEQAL
Chain of D(1B) dopamine receptor (Homo sapiens) (P21918 whole entry): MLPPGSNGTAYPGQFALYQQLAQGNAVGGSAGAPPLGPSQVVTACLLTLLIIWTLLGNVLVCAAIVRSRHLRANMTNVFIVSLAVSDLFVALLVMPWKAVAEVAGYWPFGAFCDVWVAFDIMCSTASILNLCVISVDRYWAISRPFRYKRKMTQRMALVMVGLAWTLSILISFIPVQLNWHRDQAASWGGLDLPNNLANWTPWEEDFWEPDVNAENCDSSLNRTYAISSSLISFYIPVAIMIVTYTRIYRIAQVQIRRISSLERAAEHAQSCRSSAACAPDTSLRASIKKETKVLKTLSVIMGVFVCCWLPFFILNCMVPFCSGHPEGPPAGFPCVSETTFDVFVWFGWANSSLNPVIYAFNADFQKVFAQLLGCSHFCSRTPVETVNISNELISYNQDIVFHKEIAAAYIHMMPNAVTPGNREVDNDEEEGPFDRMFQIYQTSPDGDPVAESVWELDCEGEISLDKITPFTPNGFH
Chain of Histamine H3 receptor (Homo sapiens) (Q9Y5N1 whole entry): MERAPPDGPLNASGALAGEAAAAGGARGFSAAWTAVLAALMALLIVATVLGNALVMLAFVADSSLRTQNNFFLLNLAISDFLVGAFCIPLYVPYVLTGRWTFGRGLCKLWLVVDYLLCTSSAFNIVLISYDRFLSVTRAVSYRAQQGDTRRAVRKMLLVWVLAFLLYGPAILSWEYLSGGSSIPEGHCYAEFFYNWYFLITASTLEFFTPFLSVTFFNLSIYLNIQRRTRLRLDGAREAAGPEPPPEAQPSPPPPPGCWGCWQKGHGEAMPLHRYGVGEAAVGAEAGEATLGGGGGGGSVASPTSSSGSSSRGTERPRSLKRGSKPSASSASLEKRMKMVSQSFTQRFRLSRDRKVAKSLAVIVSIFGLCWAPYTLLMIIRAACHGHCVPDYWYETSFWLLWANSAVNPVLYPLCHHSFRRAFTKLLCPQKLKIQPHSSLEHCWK
Chain of Kappa-type opioid receptor (Homo sapiens) (P41145 whole entry): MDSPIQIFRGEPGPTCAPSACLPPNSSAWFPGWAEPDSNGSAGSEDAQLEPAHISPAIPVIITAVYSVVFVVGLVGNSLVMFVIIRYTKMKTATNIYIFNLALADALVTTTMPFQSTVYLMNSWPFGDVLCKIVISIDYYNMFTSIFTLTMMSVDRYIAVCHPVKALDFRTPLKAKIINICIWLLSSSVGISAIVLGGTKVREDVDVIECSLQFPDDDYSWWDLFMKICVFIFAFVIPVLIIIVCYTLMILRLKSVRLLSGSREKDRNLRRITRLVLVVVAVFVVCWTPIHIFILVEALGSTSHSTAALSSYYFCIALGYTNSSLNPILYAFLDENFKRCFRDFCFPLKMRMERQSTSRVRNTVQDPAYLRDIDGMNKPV
Chain of D(1A) dopamine receptor (Homo sapiens) (P21728 whole entry): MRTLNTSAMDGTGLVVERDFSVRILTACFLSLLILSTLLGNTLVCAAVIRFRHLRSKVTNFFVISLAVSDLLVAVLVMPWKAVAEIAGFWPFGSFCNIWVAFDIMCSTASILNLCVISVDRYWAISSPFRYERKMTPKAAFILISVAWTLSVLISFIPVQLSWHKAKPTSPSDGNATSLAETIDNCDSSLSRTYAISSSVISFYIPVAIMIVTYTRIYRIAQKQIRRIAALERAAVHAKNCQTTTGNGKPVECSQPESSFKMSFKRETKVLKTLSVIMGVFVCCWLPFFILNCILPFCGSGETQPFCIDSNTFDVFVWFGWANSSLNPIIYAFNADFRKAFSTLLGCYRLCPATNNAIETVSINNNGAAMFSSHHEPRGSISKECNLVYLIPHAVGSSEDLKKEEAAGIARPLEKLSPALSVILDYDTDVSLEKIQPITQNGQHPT
Chain of Sigma intracellular receptor 2 (Homo sapiens) (Q5BJF2 whole entry): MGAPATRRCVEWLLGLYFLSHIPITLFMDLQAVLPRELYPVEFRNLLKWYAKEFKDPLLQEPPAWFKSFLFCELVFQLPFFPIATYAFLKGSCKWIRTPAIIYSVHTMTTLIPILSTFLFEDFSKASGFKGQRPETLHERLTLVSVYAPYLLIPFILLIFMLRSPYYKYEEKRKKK
Chain of Histamine H4 receptor (Homo sapiens) (Q9H3N8 whole entry): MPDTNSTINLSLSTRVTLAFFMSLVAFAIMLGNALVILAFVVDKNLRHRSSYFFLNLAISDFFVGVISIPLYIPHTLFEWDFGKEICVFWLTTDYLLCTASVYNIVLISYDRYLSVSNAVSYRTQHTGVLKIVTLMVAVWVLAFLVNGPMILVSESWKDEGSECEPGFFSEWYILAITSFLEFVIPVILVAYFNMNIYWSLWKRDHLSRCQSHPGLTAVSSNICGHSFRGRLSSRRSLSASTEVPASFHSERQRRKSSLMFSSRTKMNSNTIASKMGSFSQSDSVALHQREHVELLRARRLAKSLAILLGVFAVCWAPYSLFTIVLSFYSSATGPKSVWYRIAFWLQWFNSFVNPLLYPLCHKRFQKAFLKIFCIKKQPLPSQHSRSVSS
Chain of Delta-type opioid receptor (Homo sapiens) (P41143 whole entry): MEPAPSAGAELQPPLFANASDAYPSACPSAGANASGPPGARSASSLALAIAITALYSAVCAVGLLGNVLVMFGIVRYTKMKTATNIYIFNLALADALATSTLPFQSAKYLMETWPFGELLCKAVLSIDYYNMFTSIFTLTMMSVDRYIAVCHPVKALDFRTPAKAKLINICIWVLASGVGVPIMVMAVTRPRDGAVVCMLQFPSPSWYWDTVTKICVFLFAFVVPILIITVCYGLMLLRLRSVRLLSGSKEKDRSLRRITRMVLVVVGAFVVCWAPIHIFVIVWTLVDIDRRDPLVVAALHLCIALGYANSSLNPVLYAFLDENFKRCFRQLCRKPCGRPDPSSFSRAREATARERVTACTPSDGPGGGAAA
Chain of 5-hydroxytryptamine receptor 1D (Homo sapiens) (P28221 whole entry): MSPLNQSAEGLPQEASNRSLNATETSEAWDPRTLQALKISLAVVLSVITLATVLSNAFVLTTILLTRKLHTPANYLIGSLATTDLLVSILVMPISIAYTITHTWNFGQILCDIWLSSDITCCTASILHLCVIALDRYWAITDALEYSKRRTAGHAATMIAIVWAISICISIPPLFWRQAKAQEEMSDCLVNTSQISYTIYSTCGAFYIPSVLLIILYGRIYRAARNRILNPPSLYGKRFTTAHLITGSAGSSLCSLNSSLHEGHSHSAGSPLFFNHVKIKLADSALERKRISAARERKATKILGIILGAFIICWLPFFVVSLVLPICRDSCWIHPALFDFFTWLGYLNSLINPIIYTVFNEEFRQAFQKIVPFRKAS

In the case of `CN(C(=O)Cc1ccc(Cl)c(Cl)c1)C(CN1CCCC1)c1cccc(OCC(=O)O)c1` (configuration not stated), the inhibition [1] is reported as 20.5%, the inhibition [2] is reported as 9.38% and the inhibition [3] is reported as 3.88%. The inhibition [4] was -5.18%, the inhibition [5] was -7.51% and the inhibition [6] was 13.7%. It also gave an inhibition [7] of 42.8%, an inhibition [8] of 14.7% and an inhibition [9] of 7.24%. It also gave an inhibition [10] of 0.97%, an inhibition [11] of 71.9% and an inhibition [12] of 100%. It also gave an inhibition [13] of 26.4%, an inhibition [14] of 21.9% and an inhibition [15] of -9.83%. The inhibition [16] was 28.1%.
With `O=C(O)CC/C=C\C[C@@H]1CO[C@H](c2ccccc2Cl)O[C@@H]1c1ccccc1O` the inhibition [17] was -3.76%, the inhibition [2] was 6.61% and the inhibition [18] was -0.4%. For the same compound, the inhibition [3] was 40%, the inhibition [19] was -4.01% and the inhibition [5] was 6.14%. For the same compound, the inhibition [7] was 3.61%, the inhibition [10] was -3.05% and the inhibition [11] was 46%. The inhibition [12] was 5.7%, the inhibition [15] was 29.5% and the inhibition [16] was 31.1%.
With `O=C(Cc1ccccc1)Nc1nc2ccc(Cl)cc2c2nc(-c3ccco3)nn12` the inhibition [17] was -4.43%, the inhibition [3] was 30.2% and the inhibition [4] was 33.2%. It also gave an inhibition [6] of 6.75%, an inhibition [7] of 16.8% and an inhibition [8] of -0.19%. It also gave an inhibition [10] of -2.97%, an inhibition [12] of 12.4% and an inhibition [13] of 27.1%. The inhibition [14] was -6.83%, the inhibition [15] was -9.26% and the inhibition [16] was 13.8%.
Compound `Cc1cc(NC(=O)Nc2ccc(N(C)C)cc2)c2cc(F)cc(F)c2n1` has an inhibition [17] of 52.8%, an inhibition [18] of 29.1% and an inhibition [3] of 34.5%. The inhibition [4] was 25.9%, the inhibition [5] was 28.6% and the inhibition [6] was 5.25%. The inhibition [20] was -2.42%, the inhibition [7] was 13% and the inhibition [8] was 73.3%. The inhibition [9] was 7.73%, the inhibition [12] was 22.3% and the inhibition [13] was 22.8%. For the same compound, the inhibition [14] was 1.52%, the inhibition [15] was 18.1% and the inhibition [16] was 16.8%.
Work on `C[C@H](Cc1cc2c(c(C(N)=O)c1)N(CCCO)CC2)NCCOc1ccccc1OCC(F)(F)F` yielded an inhibition [1] of 31.1%, an inhibition [17] of -1.87% and an inhibition [2] of -2.64%. The inhibition [18] was -5.84%, the inhibition [3] was 94.1% and the inhibition [4] was 63.3%. It also gave an inhibition [6] of -6.83%, an inhibition [20] of 90.2% and an inhibition [7] of 36.2%. It also gave an inhibition [8] of 71.7%, an inhibition [9] of 1.73% and an inhibition [12] of 4.22%. The inhibition [13] was 35.5%, the inhibition [14] was 17.6% and the inhibition [15] was 11%. It also gave an inhibition [16] of 34.6%.
`Cc1nc(C(=O)N2CCC[C@H]2Cc2nnc(-c3ccccc3)o2)c(-c2ccccc2F)s1` gave an inhibition [17] of 71.2%, an inhibition [2] of -8.01% and an inhibition [18] of 7.87%. It also gave an inhibition [3] of 45%, an inhibition [4] of -5.22% and an inhibition [5] of 22.7%. For the same compound, the inhibition [6] was -2.37%, the inhibition [7] was 8.26% and the inhibition [8] was 92.6%. It also gave an inhibition [9] of -1.8%, an inhibition [10] of 17.4% and an inhibition [11] of -2.06%. For the same compound, the inhibition [12] was 57.7%, the inhibition [13] was 26.1% and the inhibition [14] was 12.9%. The inhibition [15] was 23.9% and the inhibition [16] was -4.23%.
`c1ccc(N2CCN(Cc3nc4ccccc4[nH]3)CC2)nc1` showed an inhibition [1] of 13.5%, an inhibition [17] of -8.11% and an inhibition [2] of -4.76%. The inhibition [3] was 33.1%, the inhibition [4] was 87.2% and the inhibition [19] was -1.78%. The inhibition [5] was 0.89%, the inhibition [7] was 6.02% and the inhibition [8] was 16.4%. It also gave an inhibition [9] of -2.37%, an inhibition [10] of -0.41% and an inhibition [11] of -5.06%. The inhibition [12] was 54.7%, the inhibition [13] was 22.6% and the inhibition [14] was 1.4%. For the same compound, the inhibition [15] was 17.4% and the inhibition [16] was 10.1%.
Compound `C[C@H](CO)Nc1nc(SCc2cccc(Cl)c2F)nc2[nH]c(=O)sc12` has an inhibition [18] of -6.29%, an inhibition [3] of 13.7% and an inhibition [19] of -1.9%. The inhibition [5] was 5.16%, the inhibition [7] was 7.55% and the inhibition [8] was -6.11%. The inhibition [10] was -7.23%, the inhibition [12] was 11% and the inhibition [13] was 8.96%. It also gave an inhibition [21] of 1.74%, an inhibition [15] of -1.24% and an inhibition [16] of 40%.
Work on `COc1ccc(Br)cc1S(=O)(=O)NC(=O)/C=C/c1ccccc1Cc1ccc2ccccc2c1` yielded an inhibition [17] of 40.7%, an inhibition [2] of 12.9% and an inhibition [18] of -4.59%. It also gave an inhibition [3] of 64.7%, an inhibition [4] of 33.8% and an inhibition [19] of -9.64%. The inhibition [5] was 5.89%, the inhibition [6] was -5.64% and the inhibition [20] was 12%. For the same compound, the inhibition [7] was 8.02%, the inhibition [8] was -4.73% and the inhibition [9] was 3.03%. It also gave an inhibition [10] of -2.73%, an inhibition [11] of -2.75% and an inhibition [12] of 1.49%. For the same compound, the inhibition [14] was 5.53%, the inhibition [15] was 33.2% and the inhibition [16] was 16%.
With `Cc1c(OCc2cccc(-c3ccc(C(=O)O)cc3)c2)cc2c(c1C)C(=O)C(C1CCCC1)C2` (configuration not stated) the inhibition [1] was -9.82%, the inhibition [17] was 32.3% and the inhibition [2] was 34.5%. It also gave an inhibition [18] of -5.51%, an inhibition [3] of 33.5% and an inhibition [4] of 44%. It also gave an inhibition [5] of 31.1%, an inhibition [6] of 14.3% and an inhibition [20] of 0.61%. The inhibition [7] was 6.01%, the inhibition [9] was -4.07% and the inhibition [10] was -3.02%. The inhibition [11] was -8.42%, the inhibition [12] was -0.11% and the inhibition [14] was -3.24%. It also gave an inhibition [15] of 76.5% and an inhibition [16] of 25.4%.
In the case of `CCCSc1nc(N[C@@H]2C[C@H]2c2ccc(F)c(F)c2)c2nnn([C@@H]3C[C@H](OCCO)[C@@H](O)[C@H]3O)c2n1`, the inhibition [1] is reported as 4.3%, the inhibition [17] is reported as -1.83% and the inhibition [18] is reported as 24%. It also gave an inhibition [3] of 29.6%, an inhibition [4] of 7.98% and an inhibition [19] of 2.95%. The inhibition [6] was -2.55%, the inhibition [20] was 48.6% and the inhibition [7] was 10.9%. For the same compound, the inhibition [8] was 33.3%, the inhibition [9] was 4.33% and the inhibition [10] was 7.72%. It also gave an inhibition [11] of 17.9%, an inhibition [12] of 27.5% and an inhibition [13] of 75.8%. It also gave an inhibition [14] of 63.6%, an inhibition [15] of 49.7% and an inhibition [16] of 3.94%.
Work on `CCCCC#Cc1nc(NC)c2ncn([C@@H]3O[C@H](CO)[C@@H](O)[C@H]3O)c2n1` yielded an inhibition [17] of 22.8%, an inhibition [2] of 13.6% and an inhibition [18] of 0.72%. For the same compound, the inhibition [3] was 32.7%, the inhibition [4] was -8.18% and the inhibition [5] was 7.95%. For the same compound, the inhibition [6] was -7.18%, the inhibition [20] was 8.46% and the inhibition [7] was 92.5%. For the same compound, the inhibition [8] was -4.41%, the inhibition [9] was 14.1% and the inhibition [10] was 2.49%. The inhibition [11] was 9.12%, the inhibition [12] was 8.14% and the inhibition [14] was 8.59%. It also gave an inhibition [15] of -8.99% and an inhibition [16] of 16%.
Compound `CCc1cc(C(C)=O)c(O)cc1OCCCCCC(C)(C)c1nn[nH]n1` has an inhibition [1] of 18.3%, an inhibition [2] of 8.78% and an inhibition [18] of 1.9%. It also gave an inhibition [3] of 46.8%, an inhibition [4] of 22.6% and an inhibition [5] of 0.93%. It also gave an inhibition [6] of 34.3%, an inhibition [7] of 12.7% and an inhibition [8] of 64.2%. For the same compound, the inhibition [9] was -9.38%, the inhibition [10] was 8.17% and the inhibition [12] was 16.9%. The inhibition [13] was 32.8%, the inhibition [15] was 0.68% and the inhibition [16] was 6.38%.

— ChEMBL document CHEMBL5442219
